Assay results taken from patent US11447525B2 (NIIGATA UNIVERSITY, priority 2018, dated 2022).
“Also recorded” adds a separate entry of the source. Non-standard residues stand in square brackets, D forms with d. Residues, ends and D or L forms follow the SMILES beside them. No end group written: not given here. *: point of attachment. 5FAM = O=C1OC2(c3ccc(O)cc3Oc3cc(O)ccc32)c2ccc(C(=O)*)cc21; NMeR = CN[C@@H](CCCNC(=N)N)C(=O)O

Columns and labels:
[1] = human blood plasma having a concentration of 50% by mass; details: up to 120 minutes
[2] = test system: human pancreatic cancer growth and progression mouse model (subcutaneous and intraperitoneal human pancreatic cancer cell-transplanted); assay: Selective absorption into tissues of human pancreatic cancer growth and progression mouse model, fluorescence signal (Test Examples 3, 4, Reference Example 2); type: in vivo, Balb/c nu/nu mouse; details: 200 μg intravenously, 30 minutes after injection
Procedure: Subsequently, 200 μg of each of the fluorescent labeled peptides prepared above in “1.” was injected intravenously into a human pancreatic cancer growth and progression mouse model (Balb/c nu/nu mouse, subcutaneous and intraperitoneal human pancreatic cancer cell-transplanted model). The pharmacokinetics of the peptide 30 minutes after the intravenous injection were then analyzed by tissue analysis of the freshly dissected specimen of the administered mouse, with the absorption quantified by detection of the fluorescence signal. […] In FIG. 9A, “sc tumor” is an abbreviation for “subcutaneous tumor”. In FIG. 9B, “abd tumor” is an abbreviation for “abdominal tumor”, indicating a tumor formed intraperitoneally. Further, “br” indicates the brain, “hr” indicates the heart, “kd” indicates the kidney, and “liv” indicates the liver. Furthermore, “liv. meta” is an abbreviation for “liver metastatic tumor”, and describes a tumor that has metastasized to the liver. Moreover, “panc” indicates the pancreas, and “sp” indicates the spleen. These same abbreviations are also used in subsequent figures. Furthermore, the term “untreated” in FIG. 9A indicates tissues resected from a mouse that was not administered with any fluorescent labeled peptide.
Specifically, first, either 27 μg or 200 μg of fluorescein was injected intravenously into a human pancreatic cancer growth and progression mouse model (Balb/c nu/nu mouse, subcutaneous and intraperitoneal human pancreatic cancer cell-transplanted model). The pharmacokinetics of the FLC 30 minutes after the intravenous injection were then analyzed by tissue analysis of the freshly dissected specimen of the administered mouse, with the absorption quantified by detection of the fluorescence signal.

[3] = test system: pancreatic cancer cells (BxPC3, PK-8, AsPC1); assay: Accumulation of FLC-labeled peptides in cells (Test Example 8); type: cell-based, human; details: 2 μM, 37° C., 2 hours
Procedure: Tests were conducted to confirm the accumulation of various peptides into each of the cells shown below in Table 13. Further, the peptides shown below in Table 14 were used.
Each peptide was added to each of the cells shown in Table 13 in an amount sufficient to achieve a final concentration in the medium of 2 μM, and following cultivation of the cells at 37° C. for 2 hours, the sample was washed 3 times with a medium containing no peptide to remove any peptide within the medium. Subsequently, the incorporation of each of the peptides into each of the cells was evaluated visually using an inverted fluorescence microscope. Prior to the microscopic examination, the culture supernatant to which the peptide had been added was removed, and following washing three times with 1×PBS (−), a trypsin treatment was conducted to remove the adherent cells, and the resultant was immediately transferred into a new 96-well plate and once again suspended in fresh culture solution before the microscopic examination was performed. In FIG. 23, “pep(−)” indicates the control cells to which no peptide was administered, and “single PCPP11” indicates cells to which FLC (fluorescein)-PCPP11 had been added. Further, “mal” indicates a maleimide group, with the peptide and the FLC bonded together by forming a covalent bond between the thiol group (—SH) of a cysteine residue and a maleimide group introduced into the FLC.

[4] = Degradation test by human blood plasma, MALDI-TOFMS analysis; type: in vitro ADME; details: for proportion of peak area relative to the total peak area in the MALDI-TOFMS analysis / proportion of each peptide when the peak area for the two or more peptides is deemed to be 100%: LL peptide added to 50% by mass human blood plasma
Procedure: Specifically, a peptide composed of the amino acid sequence represented by SEQ ID NO: 1 (hereafter sometimes referred to as “PCPP11”) was added to human blood plasma having a concentration of 50% by mass, the mixture was sampled immediately after starting the degradation test (after 0 minutes), and then after 5 minutes, after 10 minutes, after 20 minutes, after 30 minutes, after 60 minutes and after 120 minutes, and the samples were analyzed by MALDI-TOFMS (Matrix Assisted Laser Desorption/Ionization-Time Of Flight Mass Spectrometry). In Table 2, “UK” is an abbreviation for “unknown”. Further, the No. shown for each peptide in Table 2 corresponds with the numerical value recorded on the peaks of the graphs shown in FIG. 1.
Each of the peptides described above was added to human blood plasma having a concentration of 50% by mass, the resulting mixture was sampled immediately after starting the degradation test (after 0 minutes), and then after 5 minutes, after 10 minutes, after 20 minutes, after 30 minutes, after 60 minutes and after 120 minutes, and the samples were analyzed by MALDI-TOFMS. The results are shown in FIGS. 2 to 6 and Tables 4 to 6 shown below. Furthermore, the data for the degradation test by human blood plasma using PCPP11 from Reference Example 1 and the degradation tests by human blood plasma using each of the above peptides are collated in FIG. 7 and Table 7. The SEQ ID NO listed for the FAM-labeled peptide represents the SEQ ID NO of the peptide portion. Further, the No. shown for each peptide in Tables 4 to 6 corresponds with the numerical value recorded on the peaks of the graphs shown in FIGS. 2 to 6. In each table, in those cases where the numerical values are shown separated into an upper row and a lower row, the upper row value indicates the proportion (%) of peak area for two or more peptides relative to the total peak area in the MALDI-TOFMS analysis. On the other hand, the lower row value indicates the proportion (%) of each peptide when the peak area for the two or more peptides is deemed to be 100%. Moreover, for example, for the peptide No. 9 shown in Table 4, the left-side “70.0%” indicates the proportion (%) of the peptide No. 9 when the total peak area for the peptides No. 9 to 11 is deemed to be 100%, whereas the right-side “65%” indicates the proportion (%) of the peptide No. 9 relative to the total peak area in the MALDI-TOFMS analysis. This system is also used in the following tables.

Compound: R-mR-PTTWHKP-G-pkhwttprr (H-R[NMeR]PTTWHKPG[dP][dK][dH][dW][dT][dT][dP][dR][dR]-OH; N-terminus and C-terminus assumed; SMILES C[C@H](O)[C@@H](NC(=O)[C@@H](Cc1c[nH]c2ccccc12)NC(=O)[C@@H](Cc1c[nH]cn1)NC(=O)[C@@H](CCCCN)NC(=O)[C@H]1CCCN1C(=O)CNC(=O)[C@@H]1CCCN1C(=O)[C@H](CCCCN)NC(=O)[C@H](Cc1c[nH]cn1)NC(=O)[C@H](Cc1c[nH]c2ccccc12)NC(=O)[C@@H](NC(=O)[C@@H](NC(=O)[C@@H]1CCCN1C(=O)[C@H](CCCNC(=N)N)N(C)C(=O)[C@@H](N)CCCNC(=N)N)[C@@H](C)O)[C@@H](C)O)C(=O)N[C@@H](C(=O)N1CCC[C@@H]1C(=O)N[C@H](CCCNC(=N)N)C(=O)N[C@H](CCCNC(=N)N)C(=O)O)[C@H](C)O)
- not cleaved [1]: no degradation products within 120 minutes; 100% at 120 min

Compound: RRPTTWHKP-G-RRPTTWHKP (RRPTTWHKPGRRPTTWHKP)
- fragment found [1]: TTWHKP-G-RRPTTWHKP, 60 min; also recorded: RPTTWHKP-G-RRPTTWHKP, 20 min

Compound: C[C@@H](O)[C@H](NC(=O)[C@@H](NC(=O)[C@@H]1CCCN1C(=O)[C@H](CCCNC(=N)N)NC(=O)[C@H](CCCNC(=N)N)NC(=O)CNC(=O)[C@@H]1CCCN1C(=O)[C@H](CCCCN)NC(=O)[C@H](Cc1c[nH]cn1)NC(=O)[C@H](Cc1c[nH]c2ccccc12)NC(=O)[C@@H](NC(=O)[C@@H](NC(=O)[C@@H]1CCCN1C(=O)[C@H](CCCNC(=N)N)NC(=O)[C@H](CCCNC(=N)N)NC(=O)CNC(=O)[C@@H]1CCCN1C(=O)[C@H](CCCCN)NC(=O)[C@H](Cc1c[nH]cn1)NC(=O)[C@H](Cc1c[nH]c2ccccc12)NC(=O)[C@@H](NC(=O)[C@@H](NC(=O)[C@@H]1CCCN1C(=O)[C@H](CCCNC(=N)N)NC(=O)[C@H](CCCNC(=N)N)NC(=O)c1ccc2c(c1)C(=O)OC21c2ccc(O)cc2Oc2cc(O)ccc21)[C@@H](C)O)[C@@H](C)O)[C@@H](C)O)[C@@H](C)O)[C@@H](C)O)C(=O)N[C@@H](Cc1c[nH]c2ccccc12)C(=O)N[C@@H](Cc1c[nH]cn1)C(=O)N[C@@H](CCCCN)C(=O)N1CCC[C@H]1C(=O)O [FAM-LLL] (5FAM-RRPTTWHKPGRRPTTWHKPGRRPTTWHKP-OH; C-terminus assumed)
- inhibitory performance on nonspecific absorption into untargeted normal organs [2]: satisfactorily maintained
- absorption into pancreatic malignant tumors compared with the conventional PCPP11 ([2]; FIG. 11): approximately 6 fold

Compound: RRPTTWHKP
- cleaved bond [1]: arginine-arginine, 5 min
- fragment found [1]: RPTTWHKP and RRPTTWH and RPTTWH and TTWHKP and TTWH and TWH, 30 min and WH, 60 min

Compound: RPTTWHKP-C(-[FLC])-RRPTTWHKP-C(-[FLC])-RRPTTWHKP [L(-R)-Cys(-FLC)-L-Cys(-FLC)-L]
- fluorescence compared with FLC-PCPP11 [3]: stronger fluorescence
- fluorescence detected in all of the pancreatic cancer cells [3]: particularly strong fluorescence

Compound: C[C@H](O)[C@@H](NC(=O)[C@@H](Cc1c[nH]c2ccccc12)NC(=O)[C@@H](Cc1c[nH]cn1)NC(=O)[C@@H](CCCCN)NC(=O)[C@H]1CCCN1C(=O)CNC(=O)[C@@H]1CCCN1C(=O)[C@H](CCCCN)NC(=O)[C@H](Cc1c[nH]cn1)NC(=O)[C@H](Cc1c[nH]c2ccccc12)NC(=O)[C@@H](NC(=O)[C@@H](NC(=O)[C@@H]1CCCN1C(=O)[C@H](CCCNC(=N)N)N(C)C(=O)[C@@H](N)CCCNC(=N)N)[C@@H](C)O)[C@@H](C)O)C(=O)N[C@@H](C(=O)N1CCC[C@@H]1C(=O)N[C@H](CCCNC(=N)N)C(=O)N[C@H](CCCNC(=N)N)C(=O)O)[C@H](C)O [No. 19, R-mR-PTTWHKP-G-pkhwttprr] (H-R[NMeR]PTTWHKPG[dP][dK][dH][dW][dT][dT][dP][dR][dR]-OH; N-terminus and C-terminus assumed)
- degradation resistance compared with the stand-alone PCPP11 and the FAM-PCPP11 ([4]; 50% by mass human blood plasma): superior degradation resistance
- degradation products observed ([4]; 50% by mass human blood plasma, within 120 minutes of starting the test): no degradation products were observed
- inhibitory performance on nonspecific absorption into untargeted normal organs [2]: maintained satisfactorily
- absorption into pancreatic malignant tumors relative to the Ld peptide ([2]; FIG. 12B): approximately 1.4 fold

Compound: RPTTWHKP-G-RRPTTWHKP-K(-[FLC])-RRPTTWHKP (RPTTWHKPGRRPTTWHKPK(fluorescein)RRPTTWHKP) [L(-R)L-Lys(-FLC)-L]
- fluorescence compared with FLC-PCPP11 [3]: stronger fluorescence
- fluorescence detected in all of the pancreatic cancer cells [3]: particularly strong fluorescence

Compound: R-mR-PTTWHKP-C(-[FLC])-RRPTTWHKP [NmL-Cys(-FLC)-L]
- fluorescence compared with FLC-PCPP11 [3]: stronger fluorescence

Compound: RPTTWHKP-G-RRPTTWHKP-C(-[FLC])-RRPTTWHKP (RPTTWHKPGRRPTTWHKPC(fluorescein)RRPTTWHKP) [L(-R)L-Cys(-FLC)-L]
- fluorescence compared with FLC-PCPP11 [3]: stronger fluorescence
- fluorescence detected in all of the pancreatic cancer cells [3]: particularly strong fluorescence

Compound: [FLC]-R-mR-PTTWHKP-G-RRPTTWHKP [FLC-NmLL]
- fluorescence compared with FLC-PCPP11 [3]: stronger fluorescence

Compound: R-mR-PTTWHKP-C(-[FLC])-RRPTTWHKP-G-RRPTTWHKP [NmL-Cys(-FLC)-LL]
- fluorescence compared with FLC-PCPP11 [3]: stronger fluorescence
- fluorescence detected in all of the pancreatic cancer cells [3]: particularly strong fluorescence

Compound: RRPTTWHKPGRRPTTWHKP [compound 9]
- degradation resistance (proportion of the peptide retained without degradation) ([4]; 50% by mass human blood plasma, 5 min): 100%
- remaining at 10 min ([4]; 50% by mass human blood plasma, 10 min, read-out: degradation resistance (proportion of the peptide retained without degradation)): 84%
- remaining at 20 min ([4]; 50% by mass human blood plasma, 20 min, read-out: degradation resistance (proportion of the peptide retained without degradation)): 89%
- remaining at 0.5 h ([4]; 50% by mass human blood plasma, 30 min, read-out: degradation resistance (proportion of the peptide retained without degradation)): 91%
- remaining at 1 h ([4]; 50% by mass human blood plasma, 60 min, read-out: degradation resistance (proportion of the peptide retained without degradation)): 79%
- remaining at 2 h ([4]; 50% by mass human blood plasma, 120 min, read-out: degradation resistance (proportion of the peptide retained without degradation)): 65%
- degradation resistance (proportion of the peptide retained without degradation) ([4]; 50% by mass human blood plasma, Start): 100%
- proportion of peak area relative to the total peak area in the MALDI-TOFMS analysis ([4]; 5 min): 100%
- proportion of each peptide when the peak area for the two or more peptides is deemed to be 100% ([4]; 20 min): 92.1%
- proportion of peak area relative to the total peak area in the MALDI-TOFMS analysis ([4]; 20 min): 89%
- proportion of each peptide when the peak area for the two or more peptides is deemed to be 100% ([4]; 30 min): (92.1%)
- proportion of each peptide when the peak area for the two or more peptides is deemed to be 100% ([4]; 60 min): 82.1%
- proportion of peak area relative to the total peak area in the MALDI-TOFMS analysis ([4]; 60 min): 79%
- proportion of each peptide when the peak area for the two or more peptides is deemed to be 100% ([4]; 120 min): 70.0%
- proportion of peak area relative to the total peak area in the MALDI-TOFMS analysis ([4]; 120 min): 65%
- proportion of peak area relative to the total peak area in the MALDI-TOFMS analysis ([4]; Start): 100%
